Patent publication US20260285850A1, “SUBSTITUTED OXAZOLIDINONES AND IMIDAZOLINONES AS HERBICIDES” (FMC CORPORATION, priority 2023, published 2026)

How the values were obtained:
Assay type in all cases: in vivo
[1] = system: barnyardgrass (Echinochloa crus-galli); experiment: Test A preemergence soil spray, visual injury rating 0-100; conditions: 10 days, 0 = no effect, 100 = complete control
How it was run: (§1)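 Preemergence directed soil spray or postemergence spray (2-10 cm, 1-2 leaf); loam/sand mix; compound in non-phytotoxic solvent + surfactant. Greenhouse, 10 d. Visual injury vs untreated, 0 = none, 100 = complete control.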

[2] = system: blackgrass (Alopecurus myosuroides); experiment: as above; conditions: 10 days, 0 = no effect, 100 = complete control
How it was run: as §1

[3] = system: green foxtail (Setaria viridis); experiment: as above; conditions: 10 days, 0 = no effect, 100 = complete control
How it was run: as §1

[4] = system: kochia (Bassia scoparia); experiment: as above; conditions: 10 days, 0 = no effect, 100 = complete control
How it was run: as §1

[5] = system: palmer (palmer amaranth, palmer pigweed, Amaranthus palmeri); experiment: as above; conditions: 1000 g ai/ha, 10 days, 0 = no effect, 100 = complete control
How it was run: as §1

[6] = system: ragweed (common ragweed, Ambrosia artemisiifolia); experiment: as above; conditions: 10 days, 0 = no effect, 100 = complete control
How it was run: as §1

[7] = system: ryegrass, Italian (italian ryegrass, Lolium multiflorum); experiment: as above; conditions: 10 days, 0 = no effect, 100 = complete control
How it was run: as §1

[8] = system: barnyardgrass (Echinochloa crus-galli); experiment: Test A postemergence application, visual injury rating 0-100; conditions: Postemergence, 10 days; for Barnyardgrass plant response rating (0 to 100 scale): 0 is no effect, 100 is complete control
How it was run: as §1

[9] = system: blackgrass (Alopecurus myosuroides); experiment: as above; conditions: Postemergence, 10 days; for Blackgrass plant response rating (0 to 100 scale): 0 is no effect, 100 is complete control
How it was run: as §1

[10] = system: galium (catchweed bedstraw, Galium aparine); experiment: as above; conditions: Postemergence, 10 days; for Galium plant response rating (0 to 100 scale): 0 is no effect, 100 is complete control
How it was run: as §1

[11] = system: green foxtail (Setaria viridis); experiment: as above; conditions: Postemergence, 10 days; for Foxtail, Green plant response rating (0 to 100 scale): 0 is no effect, 100 is complete control
How it was run: as §1

[12] = system: horseweed (Erigeron canadensis); experiment: as above; conditions: Postemergence, 10 days; for Horseweed plant response rating (0 to 100 scale): 0 is no effect, 100 is complete control
How it was run: as §1

[13] = system: kochia (Bassia scoparia); experiment: as above; conditions: Postemergence, 10 days; for Kochia plant response rating (0 to 100 scale): 0 is no effect, 100 is complete control
How it was run: as §1

[14] = system: barnyardgrass (Echinochloa crusgalli); experiment: Test B flooded paddy test, visual plant response rating 0-100; conditions: 250 g ai/ha, Flood, applied to paddy water, evaluated after 13 days
How it was run: (§2)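 Greenhouse, 13 d. Seedlings at 2-leaf stage, pots flooded to 3 cm, compound delivered into floodwater, water level held constant. Evaluated visually relative to controls.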

[15] = system: ducksalad (Heteranthera limosa); experiment: as above; conditions: 250 g ai/ha, Flood, applied to paddy water, evaluated after 13 days
How it was run: as §2

[16] = system: rice (Oryza sativa); experiment: as above; conditions: 250 g ai/ha, Flood, applied to paddy water, evaluated after 13 days
How it was run: as §2

[17] = system: sedge, umbrella (small-flower umbrella sedge, Cyperus difformis); experiment: as above; conditions: 250 g ai/ha, Flood, applied to paddy water, evaluated after 13 days
How it was run: as §2

[18] = system: corn (Zea mays); experiment: Test A preemergence soil spray, visual injury rating 0-100; conditions: 10 days, 0 = no effect, 100 = complete control
How it was run: as §1

[19] = system: oat, wild (wild oat, Avena fatua); experiment: as above; conditions: 10 days, 0 = no effect, 100 = complete control
How it was run: as §1

[20] = system: soybean (Glycine max); experiment: as above; conditions: 10 days, 0 = no effect, 100 = complete control
How it was run: as §1

[21] = system: wheat (Triticum aestivum); experiment: as above; conditions: 500 g ai/ha, 10 days, 0 = no effect, 100 = complete control
How it was run: as §1

[22] = system: corn (Zea mays); experiment: Test A postemergence application, visual injury rating 0-100; conditions: Postemergence, 10 days, 0 is no effect, 100 is complete control
How it was run: as §1

[23] = system: oat, wild (wild oat, Avena fatua); experiment: as above; conditions: Postemergence, 10 days, 0 is no effect, 100 is complete control
How it was run: as §1

[24] = system: palmer (palmer amaranth, palmer pigweed, Amaranthus palmeri); experiment: as above; conditions: Postemergence, 10 days, 0 is no effect, 100 is complete control
How it was run: as §1

[25] = system: ragweed (common ragweed, Ambrosia artemisiifolia); experiment: as above; conditions: Postemergence, 10 days, 0 is no effect, 100 is complete control
How it was run: as §1

[26] = system: ryegrass, Italian (italian ryegrass, Lolium multiflorum); experiment: as above; conditions: Postemergence, 10 days, 0 is no effect, 100 is complete control
How it was run: as §1

[27] = system: soybean (Glycine max); experiment: as above; conditions: Postemergence, 10 days, 0 is no effect, 100 is complete control
How it was run: as §1

[28] = system: wheat (Triticum aestivum); experiment: as above; conditions: Postemergence, 10 days, 0 is no effect, 100 is complete control
How it was run: as §1

COC(=O)C1=CCC(NC(=O)C2(C)CN(c3cc(F)cc(F)c3)C(=O)N2)C1 (mixture of isomers) [Compound 181]
15: Plant response rating, Rice (0 to 100 scale, 0 is no effect and 100 is complete control) [16]
10: Horseweed plant response rating ([12]; 1000 g ai/ha, 0 to 100 scale) | Plant response rating, Barnyardgrass (0 to 100 scale, 0 is no effect and 100 is complete control) [14]
30: Plant response rating, Ducksalad (0 to 100 scale, 0 is no effect and 100 is complete control) [15]
80: Barnyardgrass plant response rating (0 to 100 scale) ([1]; 1000 g ai/ha) | Blackgrass plant response rating (0 to 100 scale) ([2]; 1000 g ai/ha) | Kochia plant response rating ([13]; 1000 g ai/ha, 0 to 100 scale)
0: Ragweed plant response rating (0 to 100 scale) ([6]; 1000 g ai/ha) | Ryegrass, Italian plant response rating (0 to 100 scale) ([7]; 1000 g ai/ha) | Plant response rating, Sedge, Umbrella (0 to 100 scale, 0 is no effect and 100 is complete control) [17]
90: Foxtail, Green plant response rating (0 to 100 scale) ([3]; 1000 g ai/ha) | Kochia plant response rating (0 to 100 scale) ([4]; 1000 g ai/ha) | Amaranth, Palmer / Pigweed, Palmer plant response rating (0 to 100 scale) [5] | Barnyardgrass plant response rating ([8]; 1000 g ai/ha, 0 to 100 scale) | Blackgrass plant response rating ([9]; 1000 g ai/ha, 0 to 100 scale) | Galium plant response rating ([10]; 1000 g ai/ha, 0 to 100 scale) | Foxtail, Green plant response rating ([11]; 1000 g ai/ha, 0 to 100 scale)

COC(=O)[C@H]1C[C@@H](NC(=O)C2(C)CN(c3cc(F)cc(F)c3)C(=O)O2)[C@H]2C[C@H]21 (stereo partly drawn) [Compound 176, methyl (1R,2S,4R,5S)-4-[[3-(3,5-difluorophenyl)-5-methyl-2-oxo-oxazolidine-5-carbonyl]amino]bicyclo[3.1.0]hexane-2-carboxylate]
55: Plant response rating, Barnyardgrass (0 to 100 scale, 0 is no effect and 100 is complete control) [14]
35: Plant response rating, Rice (0 to 100 scale, 0 is no effect and 100 is complete control) [16]
80: Soybean plant response rating (0 to 100 scale) ([20]; 500 g ai/ha) | Amaranth, Palmer / Pigweed, Palmer plant response rating (0 to 100 scale) ([24]; 125 g ai/ha) | Ragweed plant response rating (0 to 100 scale) ([25]; 500 g ai/ha)
65: Plant response rating, Ducksalad (0 to 100 scale, 0 is no effect and 100 is complete control) [15]
100: Barnyardgrass plant response rating (0 to 100 scale) ([1]; 125 g ai/ha) | Barnyardgrass plant response rating (0 to 100 scale) ([1]; 500 g ai/ha) | Blackgrass plant response rating (0 to 100 scale) ([2]; 500 g ai/ha) | Corn plant response rating (0 to 100 scale) ([18]; 500 g ai/ha) | Foxtail, Green plant response rating (0 to 100 scale) ([3]; 500 g ai/ha) | Kochia plant response rating (0 to 100 scale) ([4]; 500 g ai/ha) | Ryegrass, Italian plant response rating (0 to 100 scale) ([7]; 125 g ai/ha) | Ryegrass, Italian plant response rating (0 to 100 scale) ([7]; 500 g ai/ha) | Wheat plant response rating (0 to 100 scale) [21] | Barnyardgrass plant response rating (0 to 100 scale) ([8]; 125 g ai/ha) | Barnyardgrass plant response rating (0 to 100 scale) ([8]; 500 g ai/ha) | Corn plant response rating (0 to 100 scale) ([22]; 125 g ai/ha) | Corn plant response rating (0 to 100 scale) ([22]; 500 g ai/ha) | Galium plant response rating (0 to 100 scale) ([10]; 500 g ai/ha) | Ryegrass, Italian plant response rating (0 to 100 scale) ([26]; 125 g ai/ha) | Ryegrass, Italian plant response rating (0 to 100 scale) ([26]; 500 g ai/ha)
90: Blackgrass plant response rating (0 to 100 scale) ([2]; 125 g ai/ha) | Foxtail, Green plant response rating (0 to 100 scale) ([3]; 125 g ai/ha) | Kochia plant response rating (0 to 100 scale) ([4]; 125 g ai/ha) | Oat, Wild plant response rating (0 to 100 scale) ([19]; 125 g ai/ha) | Oat, Wild plant response rating (0 to 100 scale) ([19]; 500 g ai/ha) | Blackgrass plant response rating (0 to 100 scale) ([9]; 125 g ai/ha) | Blackgrass plant response rating (0 to 100 scale) ([9]; 500 g ai/ha) | Galium plant response rating (0 to 100 scale) ([10]; 125 g ai/ha) | Foxtail, Green plant response rating (0 to 100 scale) ([11]; 125 g ai/ha) | Foxtail, Green plant response rating (0 to 100 scale) ([11]; 500 g ai/ha) | Kochia plant response rating (0 to 100 scale) ([13]; 125 g ai/ha) | Kochia plant response rating (0 to 100 scale) ([13]; 500 g ai/ha) | Oat, Wild plant response rating (0 to 100 scale) ([23]; 125 g ai/ha) | Oat, Wild plant response rating (0 to 100 scale) ([23]; 500 g ai/ha) | Amaranth, Palmer / Pigweed, Palmer plant response rating (0 to 100 scale) ([24]; 500 g ai/ha) | Wheat plant response rating (0 to 100 scale) ([28]; 125 g ai/ha) | Wheat plant response rating (0 to 100 scale) ([28]; 500 g ai/ha)
0: Ragweed plant response rating (0 to 100 scale) ([6]; 125 g ai/ha) | Ragweed plant response rating (0 to 100 scale) ([6]; 500 g ai/ha) | Horseweed plant response rating (0 to 100 scale) ([12]; 125 g ai/ha)
30: Horseweed plant response rating (0 to 100 scale) ([12]; 500 g ai/ha)
45: Plant response rating, Sedge, Umbrella (0 to 100 scale, 0 is no effect and 100 is complete control) [17]
70: Corn plant response rating (0 to 100 scale) ([18]; 125 g ai/ha) | Soybean plant response rating (0 to 100 scale) ([20]; 125 g ai/ha) | Ragweed plant response rating (0 to 100 scale) ([25]; 125 g ai/ha) | Soybean plant response rating (0 to 100 scale) ([27]; 125 g ai/ha) | Soybean plant response rating (0 to 100 scale) ([27]; 500 g ai/ha)
